Reference: PubChem BioAssay AID1508612

Assay: passive permeability, PAMPA, ADME assay (AID 1508612)
Conditions: pH 7.4, 30.0 min, 50.0 µM

SMILES	Papp
C[C@H]1CN(C(=O)Nc2ccc(F)cc2)C[C@@H]1c1nc(-c2ccccc2)no1	> 1000 ×10⁻⁶ cm/s
CCc1ccc(NC(=O)CSC2=Nc3ccccc3C3=NC(CC(=O)NCc4ccc5c(c4)OCO5)C(=O)N23)cc1 (stereo not drawn)	< 1 ×10⁻⁶ cm/s
CCCCCCN(CCCCCC)C(=O)Cc1c(-c2ccc(F)cc2)[nH]c2ccccc12	11.7 ×10⁻⁶ cm/s
COc1ccccc1C(=O)Nc1ccccc1C(=O)Nc1cccc(S(=O)(=O)C(F)(F)F)c1	7.6 ×10⁻⁶ cm/s
O=C(O)C1CCN(c2ncc(-c3ccc4c(c3)OCCCO4)s2)CC1	10.1 ×10⁻⁶ cm/s
CC(=O)Nc1cccc(Nc2nc3ccccc3n3c(C)nnc23)c1	266 ×10⁻⁶ cm/s
Cc1ccccc1C(=O)N1CCc2cc(N3CCC(NC(=O)Cc4ccccc4)C3)ccc21 (stereo not drawn)	783 ×10⁻⁶ cm/s
Cc1ccc(NS(=O)(=O)c2cccc(C(=O)O)c2)cc1S(=O)(=O)N1CCOCC1	23.4 ×10⁻⁶ cm/s
CC(C)N(CCCNC(=O)Nc1ccc(C(C)(C)C)cc1)C[C@H]1O[C@@H](n2cc(Br)c3c(N)ncnc32)[C@H](O)[C@H]1O	472 ×10⁻⁶ cm/s
Cc1ccccc1CSc1nc2ncc(Br)cc2[nH]1	497 ×10⁻⁶ cm/s
O=C(NC[C@H]1Cn2c(-c3ccc(Cl)cc3)cnc2CO1)C1CCCC1	108 ×10⁻⁶ cm/s
COc1ccc(-n2c(C)c(C(C)=O)c3cc(O)ccc32)cc1	415 ×10⁻⁶ cm/s
COc1ccc(-n2nc(C3CCCN(C(=O)c4ccc(C)cc4)C3)[nH]c2=O)cc1 (stereo not drawn)	685 ×10⁻⁶ cm/s
CCOc1ccc(CCNC(=O)c2cc3sccc3n2CCN(C)C)cc1OCC	> 1000 ×10⁻⁶ cm/s
CC(=O)c1c(C)[nH]c(C(=O)Nc2cccc([S+](=O)([O-])Nc3ccccn3)c2)c1C	11.6 ×10⁻⁶ cm/s
CC(=O)c1c(C)[nH]c(C(=O)Nc2cccc([S+](=O)([O-])Nc3cccnc3)c2)c1C	16.5 ×10⁻⁶ cm/s
COc1cccc(C(=O)Nc2nc(-c3nnn(-c4cccc(Cl)c4C)c3C)ns2)c1	321 ×10⁻⁶ cm/s
CNc1ncc(-c2cccc3ccccc23)o1	> 1000 ×10⁻⁶ cm/s
COC(=O)CNC(=O)c1nc(-c2ccc([S+](C)(=O)[O-])cc2)c2ccccn12	330 ×10⁻⁶ cm/s
CC/C=C\C/C=C\C/C=C\C/C=C\C/C=C\C/C=C\CCC(=O)NCCO	298 ×10⁻⁶ cm/s
Cc1noc(/C=C/c2ccccc2F)c1S(=O)(=O)N1CCC(C(=O)Nc2ccc(C#N)cc2)CC1	8.58 ×10⁻⁶ cm/s
Cc1noc(C)c1CN1CCNc2cc(Nc3ccccc3)ncc2C1	978 ×10⁻⁶ cm/s
COc1cc2ncnc(Oc3cccc(NC(=O)Nc4cc(C(C)(C)C(F)(F)F)on4)c3)c2cc1OC	36.1 ×10⁻⁶ cm/s
CC(C)(C)c1ccc(C(=O)N2CC(=O)Nc3ccc(F)cc3C2c2ccc(F)cc2)cc1 (stereo not drawn)	> 1000 ×10⁻⁶ cm/s
Fc1cc(F)cc(Nc2nc(-c3ccncc3)nc3ccccc23)c1	84.9 ×10⁻⁶ cm/s
O=C(Nc1ccc(S(=O)(=O)Nc2nc(-c3ccccc3)cs2)cc1)c1ccc2ccccc2c1	< 1 ×10⁻⁶ cm/s
NC(=O)C1CCN(c2nccc(Cl)n2)CC1	37.3 ×10⁻⁶ cm/s

SMILES	Papp
O=[S+]([O-])(Nc1ccccc1)c1ccc(NCc2cccc(Cl)c2F)cc1	383 ×10⁻⁶ cm/s
CC(C)c1ccccc1-c1ncc(F)c(NC2(c3ccc(-c4cccnc4)cc3)CC2)n1	> 1000 ×10⁻⁶ cm/s
Cc1cccc(CNc2ccc(S(=O)(=O)Nc3nccs3)cc2)c1O	7.9 ×10⁻⁶ cm/s
O=C(O)c1ccnc2cc(C(OCCN3CCCCC3)c3ccccc3Cl)[nH]c12 (stereo not drawn)	< 1 ×10⁻⁶ cm/s
CCOc1ccc(CCNC(=O)c2ccc(C(=O)c3ccccc3)cc2)cc1OCC	> 1000 ×10⁻⁶ cm/s
COc1ccc(-c2csc(CCn3nc(C)c4c(C(F)(F)F)cc(=O)[nH]c43)n2)cc1	825 ×10⁻⁶ cm/s
CCc1ccc(C2C(C(=O)Nc3ccccc3OC)=C(C)Nc3c(C(=O)Nc4ccc(C)cc4)cnn32)cc1 (stereo not drawn)	547 ×10⁻⁶ cm/s
CC(C)(O)Cn1c(NC(=O)c2ccc(-c3cn[nH]c3)s2)nc2cc(CN3CCOCC3)ccc21	368 ×10⁻⁶ cm/s
Nc1ncc(S(=O)(=O)N2CCN(c3ccccc3)CC2)cn1	13.5 ×10⁻⁶ cm/s
O=C(Nc1ccc(OC(F)(F)Cl)cc1)c1cnc(N2CC[C@@H](O)C2)c(-c2ccn[nH]2)c1	14.6 ×10⁻⁶ cm/s
O=C(NCc1ccccc1)c1cn2cc(-c3ccccc3)sc2n1	> 1000 ×10⁻⁶ cm/s
CC(=O)c1c(C)[nH]c(C(=O)Nc2ccc(C)c(S(=O)(=O)Nc3ccc(Br)cc3)c2)c1C	108 ×10⁻⁶ cm/s
NC(=O)C1CCN(c2nc(-c3ccc4c(c3)OCCCO4)cs2)CC1	629 ×10⁻⁶ cm/s
O=S(=O)(Nc1ccccc1)c1ccc(NCc2ccc(Br)cc2O)cc1	537 ×10⁻⁶ cm/s
CC(=O)Nc1ccc(NC(=O)C(NS(=O)(=O)c2ccc(Br)s2)c2ccccc2)cc1 (stereo not drawn)	224 ×10⁻⁶ cm/s
CNc1oc(-c2cccc(Cl)c2Cl)nc1C#N	505 ×10⁻⁶ cm/s
O=C1CCc2cc(S(=O)(=O)Nc3ccc(F)c(Cl)c3)c(F)cc2N1	861 ×10⁻⁶ cm/s
FC(F)(F)c1ccc(N2CCN(C(=S)Nc3ccccn3)CC2)cc1	815 ×10⁻⁶ cm/s
CCOC(=O)C1=C(CN(CC)Cc2ccccc2)NC(=O)NC1c1ccc(OC(C)C)cc1 (stereo not drawn)	> 1000 ×10⁻⁶ cm/s
Cc1nc2c(-c3ccccc3)cnn2c(N)c1-c1ccccc1	207 ×10⁻⁶ cm/s
COc1ccccc1N1CCN(CCN(C(=O)c2ccc(F)cc2)c2ccccn2)CC1	> 1000 ×10⁻⁶ cm/s
O=C(Nc1nc2cc(C(F)(F)F)cc(NC3CC3)n2n1)c1cccnc1	197 ×10⁻⁶ cm/s
NS(=O)(=O)c1ccc(NC(=O)c2cc3ncccn3n2)cc1	82.5 ×10⁻⁶ cm/s
CCN(CC)CCCNC(=O)c1oc2c(c1C)-c1nn(Cc3ccc(Cl)cc3)cc1CC2	> 1000 ×10⁻⁶ cm/s
CCOC(=O)Nc1cc(-c2ccc(C)c(NS(C)(=O)=O)c2)nn2c(C)nnc12	278 ×10⁻⁶ cm/s
N#Cc1ccccc1-c1csc(N2CCC(C(N)=O)CC2)n1	343 ×10⁻⁶ cm/s
